Earlier results on two compounds are cited in patent US20210251946A1, “CANNABINOID-[…], FORMULATIONS, AND USES THEREOF FOR TREATING AMYOTROPHIC LATERAL SCLEROSIS” (GREEN RUSH SCIENCE, LLC, priority 2020, published 2021).

Series [1] deals with ALS hSOD(G93A) mice. The following applies: intraperitoneally, beginning after onset of motor impairment and tremor (at 90 days old).
Series [2] deals with ALS hSOD(G93A) mice. The following applies: daily intraperitoneal administration, initiated after disease onset.

With `Cc1c(C(=O)c2cccc3ccccc23)c2cccc3c2n1[C@H](CN1CCOCC1)CO3` [WIN 55,212-2], the disease progression result with ALS hSOD(G93A) mice [1] is reported as “significant delay in disease progression”. For the compound `CN1CCCCC1Cn1cc(C(=O)c2cc([N+](=O)[O-])ccc2I)c2ccccc21` (stereo not drawn) [AM-1241], in the series with ALS hSOD(G93A) mice [2], the increase of survival is given as 56% and the motor impairment result is recorded as “delayed motor impairment”.
